Measured values reported in publication PMC10610505, “Synthesis and Biological Evaluation of Some New 3-Aryl-2-thioxo-2,3-dihydroquinazolin-4(1H)-ones and 3-Aryl-2-(benzylthio)quinazolin-4(3H)-ones as Antioxidants; COX-2, LDHA, α-Glucosidase and α-Amylase Inhibitors; and Anti-Colon Carcinoma and Apoptosis-Inducing Agents” (Pharmaceuticals, 2023).
Several values for one entry are separate records, joined by “and”; a condition that tells them apart may be missing. Equal values may be shown once.

Key:
[1] = system: HCT-116 carcinoma cells; experiment: Cell cycle assay (PI flow cytometry), HCT-116; type: cell-based, human; settings: 50 µg/mL, 48 h
Description: In the current study, the cell cycle distribution of the treated HCT-116 and LoVo carcinoma cells with compounds 3a and 3f was assessed by labeling the cell’s DNA with PI stain in order to determine if the induction of apoptosis in carcinoma cells could be related to the cell cycle arrest (Figure 8A–F). The intensity of the PI stain is proportional to the cell’s DNA content (Figure 9). […] The ability of the tested compounds (3a and 3f) to block the cell cycle progression in LoVo and HCT-116 cells confirmed their anticancer potential against these colon carcinoma cell lines and could explain the mechanism of the observed cytotoxicity.
Changes in cell cycle distribution induced by compounds 3a and 3f were analyzed using a flow cytometric analysis according to Nicoletti et al. 1991 [108] using a Propidium Iodide Flow Cytometry Kit for Cell Cycle Analysis (Abcam-UK). HCT-116 and LoVo carcinoma cells (5 × 10^4 cells/mL) were treated with DMSO as a negative control, and compounds 3a and 3f (50 µg/mL), for 48 h. After the centrifugation of the treated cells at 1800 rpm for 5 min, the pellet was washed twice with PBS. Then, the cells were fixed by mixing […] of 90% cold ethanol, and stained with propidium iodide (PI) for 1 h at 37 °C. […] The stained cells were analyzed for their DNA content using a BD FACSC flow cytometer.

[2] = system: HCT-116 human colon carcinoma cells; experiment: Viability assay (LDH release), HCT-116; type: cell-based; settings: for viability at 200 µg/mL: HCT-116, 48 h, read-out: Mean % of viable cells ± SD, HCT-116
Summary of the method: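 HCT-116 human colon carcinoma cells were cultured for 24 h at 37 °C in a humidified 5% CO2 incubator. Samples diluted in Dulbecco’s Modified Eagle’s Medium with 10% FBS were then added. Lactate dehydrogenase released from damaged cells was measured in supernatants by ELISA end-point reading at 550 nm. Controls were 0.1% Triton X-100 (positive) and assay medium alone (negative).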

[3] = system: LoVo human colon carcinoma cells; experiment: Viability assay (LDH release), LoVo; type: cell-based; settings: for viability at 200 µg/mL: 48 h, read-out: Mean % of viable cells ± SD, LoVo; for IC50: from concentration–response curves
Summary of the method: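 LoVo human colon carcinoma cells were grown for 24 h at 37 °C in a humidified 5% CO2 incubator in Dulbecco's Modified Eagle's Medium containing 10% FBS, then exposed to test samples for 48 h. Lactate dehydrogenase released into the supernatant was measured by ELISA end-point assay at 550 nm, using 0.1% Triton X-100 as positive control and medium alone as negative control. Viability was reported as mean % ± SD (n = 3) and compared against HUVEC cells.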

[4] = system: caspase-9; experiment: Western blot of caspase-9 in cell lysates; type: cell-based, human; settings: 50 µg/mL, 48 h
Description: Furthermore, in order to confirm the implication of these compounds in the apoptotic pathways trigged by caspases, the proteins levels of caspases 8 and 9 were evaluated using Western blot analysis for the HCT-116 and LoVo carcinoma cells lysates after treatment with compounds 3a and 3f (50 µg/mL for 48 h); the untreated cells were used as a negative control.
In order to determine the levels of production of caspases 8 and 9 by the treated carcinoma cells, Western blot analysis was carried out using a FLAG® Western Detection Kit (Agilent Technologies, USA). Exponentially growing HCT-116 and LoVo cells were treated with 50 µg/mL of derivatives 3a and 3f for 48 h. After incubation, the cells were harvested and lysed using a Lysis buffer consisting of 10 mM of Tris, 100 mM of NaCl, 25 mM of ethylenediaminetetra aceticacid (EDTA), 25 mM of Ethylene glycol bis(2-aminoethyl)tetraacetic acid (EGTA), 0.1% Sodium dodecyl sulfate (SDS), 1% (v/v) Triton X-100 and 2% (v/v) NP-40 (pH 7.4), with a 1:200 protease inhibitor cocktail (Sigma-Adrich) and a 1:300 phosphatase inhibitor cocktail tablet (Roche Applied Science, Mannheim, Germany). The protein concentrations of each sample were determined calorimetrically using the Bradford method before proceeding to carry out the Western blotting. Equal amounts (20 µg) of the protein samples were mixed and boiled with SDS Loading buffer for 10 min, allowed to cool on ice and then loaded into SDS-polyacrylamide gel and separated using a Cleaver electrophoresis unit (Cleaver, Warwickshire, UK), before being transferred onto polyvinylidene fluoride (PVDF) membranes (Bio-Rad, USA) for 30 min using a Semi-dry Electroblotter (Biorad, USA) at 2.5 A and 25 V for 30 min. The membrane was blocked with 5% nonfat dry milk in TBS-T for two hours at room temperature, in order to reduce non-specific protein interactions between the membrane and the antibody. The blocked membrane was incubated overnight at 4 °C with primary antibodies (Cell Signaling Technology, Massachusetts, USA) and β-actin (Sigma). […] Briefly, the membranes were incubated for 1 min with a mixture of equal volumes of ECL solution A and ECL solution B. The chemiluminescent signals were captured using a CCD camera-based imager (Chemi Doc imager, Biorad, USA), and the bands’ intensities were then measured using ImageLab v3.0 (Bio-Rad). […] The proteins were detected using an enhanced chemiluminescence (ECL) detection system (Thermo Fischer Scientific, USA). The intensities of the bands were quantified using the NIH ImageJ software v3.0.1 (http://rsb.info.nih.gov/ij/).

[5] = Homo sapiens, HCT-116, from concentration–response curves
[6] = from concentration–response curves

## O=c1c2cc(Cl)ccc2[nH]c(=S)n1-c1cccc(C(F)(F)F)c1 [Compound 3a, 6-Chloro-2-thioxo-3-(3-trifluoromethyl-phenyl)-2,3-dihydro-1H-quinazolin-4-one]
[1]
  Cells in G1 phase (%DIP G1): 53.51%
[2]; Homo sapiens
  viability at 200 µg/mL: 26.8 ± 1.26%
[2]; [5]
  IC50: 298 µM and 106 µg/mL
[2]; [6]
  IC50: 298 µM
[3]; Homo sapiens, LoVo
  viability at 200 µg/mL: 23.5 ± 1.5%
  IC50: 294 µM and 105 µg/mL
[3]
  IC50: 294 µM
[4]; lysates of HCT-116
  Increase in expression level of caspase-9: 3.6 times
[4]; lysates of LoVo
  Increase in expression level of caspase-9: 7.2 times

## O=c1c2cc(Cl)ccc2[nH]c(=S)n1-c1ccc([N+](=O)[O-])cc1 [Compound 3f, 6-Chloro-3-(4-nitro-phenyl)-2-thioxo-2,3-dihydro-1H-quinazolin-4-one]
[1]
  Cells in G1 phase (%DIP G1): 57.81%
[2]; Homo sapiens
  viability at 200 µg/mL: 4.67 ± 0.577%
[2]; [5]
  IC50: 324 µM and 108 µg/mL
[2]; [6]
  IC50: 324 µM
[3]; Homo sapiens, LoVo
  viability at 200 µg/mL: 22.7 ± 2.08%
  IC50: 384 µM and 128 µg/mL
[3]
  IC50: 384 µM
[4]; lysates of HCT-116
  Increase in expression level of caspase-9: 3.1 times
[4]; lysates of LoVo
  Increase in expression level of caspase-9: 4.8 times
